In patent US20240352022A1, “GROUP OF IMB-C5 SERIES COMPOUNDS HAVING ANTI-CORONAVIRUS ACTIVITY AND APPLICATION THEREOF” (priority 2021, published 2024):

System: SARS-COV-2 Beta variant
Assay: microbe, parasite or virus in culture
Format: cell-based, Human coronavirus SARS-COV-2 Beta variant
Settings: for IC50: Severe acute respiratory syndrome coronavirus 2, Vero C1008

SMILES	inhibitory activity against SARS-COV-2 (in words)	IC50 [µM]
COc1cccc(Cn2c(NCCO)nc3c2c(=O)n(C)c(=O)n3C)c1 [IMB-C5]	had an inhibitory activity against the SARS-COV-2 Beta variant	34.8
CCC(CC)COC(=O)[C@H](C)N[P@](=O)(OC[C@H]1O[C@@](C#N)(c2ccc3c(N)ncnn23)[C@H](O)[C@@H]1O)Oc1ccccc1 [Remdesivir, reference compound]		0.73
